From US10485861B2 (priority 2013, dated 2019)

Test system: Chlamydia trachomatis
Format: in vivo, mice
Settings: subcutaneous immunization with UV-inactivated Chlamydia, alone or co-administered with the named adjuvant

SMILES: CC(C)Cn1cnc2c(N)nc3ccccc3c21 [IMQ, imiquimod]
- Protection against genital Chlamydia challenge (Chlamydia load): did not provide protection or tolerance
